Measurements published in patent US9814739B2, “2′-ethynyl nucleoside derivatives for treatment of viral infections” (priority 2012, dated 2017).

Assays:
[1] = system: Replicon cells, expressing the GT1b HCV luciferase replicon
[2] = system: GT1b HCV luciferase replicon; test: HCV replicon antiviral EC50 assay; format: cell-based, Hepatitis C virus; details: read-out: HCV GT1b EC50

| SMILES | CC50 [1] [nM] | EC50 [2] [nM] |
| --- | --- | --- |
| C#C[C@@]1(O)[C@H](O)[C@@H](COP(=O)(N[C@@H](C)C(=O)OCOC(C)=O)Oc2ccccc2)O[C@H]1n1ccc(=O)[nH]c1=O (single isomer, unassigned) [1.17 (peak 1)] | > 25000 | 6800 |
| C#C[C@@]1(O)[C@H](O)[C@@H](COP(=O)(NCCOC(=O)c2ccccc2)Oc2ccccc2)O[C@H]1n1ccc(=O)[nH]c1=O (single isomer, unassigned) [1.18 (peak 1)] | > 25000 | 80 |
| C#C[C@@]1(O)[C@H](O)[C@@H](COP(=O)(N[C@@H](CC(C)C)C(=O)OC(C)C)Oc2ccccc2)O[C@H]1n1ccc(=O)[nH]c1=O (single isomer, unassigned) [1.23 (peak 1)] | > 25000 | 2720 |
| C#C[C@@]1(O)[C@H](O)[C@@H](COP(=O)(N[C@@H](CCC)C(=O)OC(C)C)Oc2ccccc2)O[C@H]1n1ccc(=O)[nH]c1=O (single isomer, unassigned) [1.24 (peak 1)] | > 25000 | 890 |
| C#C[C@@]1(O)[C@H](O)[C@@H](COP(=O)(N[C@@H](C)C(=O)OC(C)C)Oc2ccccc2)O[C@H]1n1ccc(OC)nc1=O (single isomer, unassigned) [1.28 (peak 1)] | > 25000 | > 100000 |
| C#C[C@@]1(O)[C@H](O)[C@@H](COP(=O)(N[C@@H](C)C(=O)OC(C)C)Oc2ccccc2)O[C@H]1n1ccc(N)nc1=O (single isomer, unassigned) [1.30 (peak 1)] | > 25000 | 44900 |
| C#C[C@@]1(O)[C@H](O)[C@@H](COP(=O)(N[C@@H](C)C(=O)OC2CCCC2)Oc2ccccc2)O[C@H]1n1ccc(=O)[nH]c1=O (single isomer, unassigned) [1.31 (peak 1)] | > 25000 | 24 |
| C#C[C@@]1(O)[C@H](O)[C@@H](COP(=O)(N[C@@H](C)C(=O)OCC(C)(C)OC)Oc2ccccc2)O[C@H]1n1ccc(=O)[nH]c1=O (single isomer, unassigned) [1.32 (peak 1)] | > 25000 | 530 |
| C#C[C@@]1(O)[C@H](O)[C@@H](COP(=O)(N[C@@H](C)C(=O)OCC(C)(C)C)Oc2ccccc2)O[C@H]1n1ccc(=O)[nH]c1=O (single isomer, unassigned) [1.33 (peak 1)] | 19700 | 81 |
| C#C[C@@]1(O)[C@H](O)[C@@H](COP(=O)(N[C@@H](C)C(=O)OC(CCC)CCC)Oc2ccccc2)O[C@H]1n1ccc(=O)[nH]c1=O (single isomer, unassigned) [1.34 (peak 1)] | > 25000 | 301 |
| C#C[C@@]1(O)[C@H](O)[C@@H](COP(=O)(N[C@@H](C)C(=O)OC)Oc2ccccc2)O[C@H]1n1ccc(=O)[nH]c1=O (single isomer, unassigned) [1.35 (peak 1)] | > 25000 | 294 |
| C#C[C@@]1(O)[C@H](O)[C@@H](COP(=O)(N[C@@H](C)C(=O)OCC)Oc2ccccc2)O[C@H]1n1ccc(=O)[nH]c1=O (single isomer, unassigned) [1.36 (peak 1)] | > 25000 | 103 |
| C#C[C@@]1(O)[C@H](O)[C@@H](COP(=O)(NC(C)(C)C(=O)OCC)Oc2ccccc2)O[C@H]1n1ccc(=O)[nH]c1=O (single isomer, unassigned) [1.37 (peak 1)] | > 25000 | 367 |
| C#C[C@@]1(O)[C@H](O)[C@@H](COP(=O)(N[C@@H](CC)C(=O)OC(C)C)Oc2ccccc2)O[C@H]1n1ccc(=O)[nH]c1=O (single isomer, unassigned) [1.38 (peak 1)] | > 25000 | 370 |
| C#C[C@@]1(O)[C@H](O)[C@@H](COP(=O)(NC(C)(C)C(=O)OC(C)C)Oc2ccccc2)O[C@H]1n1ccc(=O)[nH]c1=O (single isomer, unassigned) [1.39 (peak 1)] | > 25000 | 1500 |
